Structures are written as SMILES. Values joined by “and” are separate entries in the source; they are usually repeats but may differ in a detail not shown here. Equal values may be shown once.

Assay [1] has as its target bacterial EPSP synthase DGT-18 (GENBANK NP_928909.1) variant DGT-18 v6 (G→A at residue 96), SEQ ID NO:9 (Photorhabdus laumondii, UniProt Q7N6D5, G96A). Description: In vitro kinetic assay (inorganic phosphate production, malachite green). Conditions: IC50 (glyphosate). The source says:
(§1) The novel DGT-14, DGT-12, DGT-18, DGT-29 and DGT-30 enzymes were obtained and the glycine to alanine mutation was introduced into the EPSP synthase enzymes at a location analogous to the G96A location described for the E. coli version of the EPSP synthase enzyme. The DGT-14 protein sequence was modified by introducing an alanine to replace the endogenous glycine of GENBANK ACC NO: ZP_01452683 at amino acid residue 101, thereby resulting in SEQ ID NO:1. The DGT-12 protein sequence was modified by introducing an alanine to replace the endogenous glycine of GENBANK ACC NO: ZP_01622155.1 at amino acid residue 111, thereby resulting in SEQ ID NO:7. The DGT-18 protein sequence was modified by introducing an alanine to replace the endogenous glycine of GENBANK ACC NO: NP_928909.1 at amino acid residue 96, thereby resulting in SEQ ID NO:9. The DGT-29 protein sequence was modified by introducing an alanine to replace the endogenous glycine of GENBANK ACC NO: YP_322772.1 at amino acid residue 96, thereby resulting in SEQ ID NO:11. The DGT-30 protein sequence was modified by introducing an alanine to replace the endogenous glycine of GENBANK ACC NO: ZP_02156189.1 at amino acid residue 96, thereby resulting in SEQ ID NO:13.
(§2) The synthesized genes were cloned into the pET28 expression vector.
(§3) Recombinant DGT proteins were overexpressed in Rosetta2™ (DE3) cells (Novagen, Madison, Wis.) from the constructs described above. A single colony was used to inoculate 50 mL starter cultures of LB containing chloramphenicol (25 μg/mL) and kanamycin (50 μg/mL) which were cultivated overnight at 37° C. The overnight cultures were used to inoculate 1 L of LB containing chloramphenicol (25 μg/mL) and kanamycin (50 μg/mL). The cultures were grown at 37° C. to an O.D.600=0.6 then placed in an ice water bath for 10 minutes. Expression of the target proteins was achieved by addition of IPTG to a final concentration of 500 μM. Induction was allowed to proceed overnight at 20° C. followed by harvesting via centrifugation at 8,000 rpm for 20 minutes. The cell pellets were stored at −80° C. until required for purification. All purification steps were carried out at 4° C.

Assay [2] deals with bacterial EPSP synthase DGT-30 (GENBANK ZP_02156189.1) variant DGT-30 v6 (G→A at residue 96), SEQ ID NO:13 (Shewanella benthica, UniProt A9CYU9, G96A). Described as above. The note with it: IC50 (glyphosate).
Description: as §1, §2, §3

Consider `O=C(O)CNCP(=O)(O)O` [glyphosate, N-(phosphonomethyl)glycine], for which the IC50 was 9.24 mM in assay [1] (at 60 μM PEP); 33.2 mM in assay [1] (at 1 mM PEP); 7.86 mM in assay [2] (at 60 μM PEP); 15.6 mM and 15.5 mM in assay [2] (at 1 mM PEP).

These data come from patent publication US9873883B2, “Glyphosate resistant plants and associated methods” (Dow AgroSciences LLC, priority 2012, dated 2018).
